Source: ChEMBL document CHEMBL1201862, “PubChem BioAssay data set” (2004)
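Cells were grown in 96-well plates and exposed to each compound for 48 hours at five concentrations; endpoints were interpolated linearly between bracketing concentrations, or set to the highest concentration if not reached. GI50 marks 50% less growth.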 Calls of active or inactive are those of the source. Rule as the data show it: active = GI50 up to about 1.1 µM and inactive = higher.

Columns and labels:
Assay in all cases: growth of human tumour cells (NCI), 48 h
[1] = tested on: 786-0
[2] = tested on: A498
[3] = tested on: A549
[4] = tested on: ACHN
[5] = tested on: BT-549
[6] = tested on: CAKI-1
[7] = tested on: CCRF-CEM
[8] = tested on: COLO 205
[9] = tested on: DU-145
[10] = tested on: EKVX
[11] = tested on: HCT-116
[12] = tested on: HCT-15
[13] = tested on: HL-60
[14] = tested on: HT-29
[15] = tested on: Hs-578T
[16] = tested on: IGROV-1
[17] = tested on: K562
[18] = tested on: KM12
[19] = tested on: M14
[20] = tested on: MDA-MB-231
[21] = tested on: MDA-MB-435
[22] = tested on: MDA-N
[23] = tested on: MOLT-4
[24] = tested on: Malme-3M
[25] = tested on: NCI-H226
[26] = tested on: NCI-H23
[27] = tested on: NCI-H460
[28] = tested on: NCI-H522
[29] = tested on: NCI/ADR-RES
[30] = tested on: OVCAR-4
[31] = tested on: OVCAR-5
[32] = tested on: OVCAR-8
[33] = tested on: PC-3
[34] = tested on: RPMI-8226
[35] = tested on: RXF 393
[36] = tested on: SF-268
[37] = tested on: SF-295
[38] = tested on: SF-539
[39] = tested on: SK-MEL-28
[40] = tested on: SK-MEL-2
[41] = tested on: SK-MEL-5
[42] = tested on: SK-OV-3
[43] = tested on: SN12C
[44] = tested on: SNB-19
[45] = tested on: SNB-75
[46] = tested on: SR
[47] = tested on: SW-620
[48] = tested on: T47D
[49] = tested on: TK-10
[50] = tested on: U-251
[51] = tested on: UACC-257
[52] = tested on: UACC-62
[53] = tested on: UO-31
[54] = tested on: HCC 2998
[55] = tested on: HOP-62
[56] = tested on: HOP-92
[57] = tested on: LOX IMVI
[58] = tested on: MCF7
[59] = tested on: OVCAR-3

Measured: GI50

N#Cc1c(-c2ccccc2)c(C=O)c(=O)n2c1[nH]c1ccccc12
inactive: [1] > 100 µM | [2] 26.1 µM | [3] > 100 µM | [4] 78.3 µM | [5] 39.1 µM | [6] > 100 µM | [7] 17.6 µM | [8] 53.1 µM | [9] > 100 µM | [10] > 100 µM | [11] 82.4 µM | [13] 56.9 µM | [14] 92 µM | [15] 31.3 µM | [16] > 100 µM | [17] 67 µM | [18] 60.1 µM | [19] 97.5 µM | [20] 38.2 µM | [21] 67.1 µM | [22] 84.3 µM | [23] 33.7 µM | [24] > 100 µM | [25] 55.6 µM | [26] 61.7 µM | [27] > 100 µM | [28] 55.6 µM | [29] > 100 µM | [30] 20.5 µM | [31] > 100 µM | [32] > 100 µM | [33] > 100 µM | [34] 63.2 µM | [35] 42.5 µM | [36] 65.9 µM | [37] > 100 µM | [38] 77.1 µM | [39] 23.9 µM | [40] 33 µM | [41] > 100 µM | [42] > 100 µM | [43] 45.3 µM | [44] 50.7 µM | [45] 22.1 µM | [46] 67.6 µM | [47] 42.6 µM | [48] 65.9 µM | [49] 77.3 µM | [50] 50.8 µM | [51] > 100 µM | [52] 40.7 µM | [53] 40.6 µM
70 µM: [12]

COc1ccc2c(c1)N=C1CSC(c3cccc(Br)c3)N1C2 (stereo not given)
inactive: [1] 17.4 µM | [3] 16.6 µM | [4] 13.3 µM | [5] 12.4 µM | [6] 6.19 µM | [8] 17.4 µM | [10] 13.2 µM | [54] 6.43 µM | [11] 10.8 µM | [13] 9.51 µM | [55] 22.8 µM | [56] 16.7 µM | [14] 14.8 µM | [15] 26.3 µM | [16] 18.6 µM | [17] 3.85 µM | [18] 10.9 µM | [57] 18.5 µM | [19] 16.6 µM | [58] 6.59 µM | [20] 17.8 µM | [21] 10.5 µM | [22] 11.5 µM | [23] 2.99 µM | [24] 18 µM | [25] 22.9 µM | [26] 17.9 µM | [27] 7.62 µM | [28] 14.4 µM | [29] 6.98 µM | [30] 15.9 µM | [31] 18.8 µM | [32] 23.7 µM | [33] 11.5 µM | [34] 3.72 µM | [35] 14.6 µM | [36] 28.9 µM | [37] 14.2 µM | [38] 17.9 µM | [39] 32.8 µM | [40] 17.6 µM | [41] 10.4 µM | [42] 21.3 µM | [43] 19.5 µM | [44] 22.5 µM | [45] 15.5 µM | [46] 4.52 µM | [47] 25.5 µM | [48] 24 µM | [49] 16 µM | [50] 17.5 µM | [51] 10.5 µM | [52] 15.2 µM | [53] 12.6 µM
6.14 µM: [12]

C=C1C(=O)O[C@H]2C1C[C@@H](OC(C)=O)/C(C)=C/CC[C@@]1(C)O[C@H]21 (stereo not given in full)
inactive: [1] 11.5 µM | [3] 49.7 µM | [4] 4.33 µM | [5] 5.92 µM | [6] 9.18 µM | [7] 1.77 µM | [8] 3.7 µM | [9] 14.6 µM | [10] 17.2 µM | [54] 13 µM | [11] 8.75 µM | [55] 17.6 µM | [56] 16 µM | [14] 20.1 µM | [15] 26.1 µM | [16] 7.67 µM | [17] 2.09 µM | [18] 21.8 µM | [58] 10.3 µM | [21] 22.4 µM | [22] 2.93 µM | [23] 2 µM | [24] 4.36 µM | [26] 15.1 µM | [27] 33.3 µM | [28] 2.26 µM | [29] 11 µM | [30] 13 µM | [31] 17.6 µM | [32] 16.1 µM | [33] 15.3 µM | [34] 2.27 µM | [35] 6.53 µM | [37] 21.1 µM | [39] 10.7 µM | [40] 21.8 µM | [41] 5.53 µM | [42] 26.9 µM | [43] 14.3 µM | [44] 26 µM | [45] 28.2 µM | [46] 3.38 µM | [47] 4.47 µM | [48] 7.1 µM | [49] 6.12 µM | [50] 70.1 µM | [51] 1.34 µM | [52] 3.05 µM | [53] 4.91 µM
active: [57] 0.817 µM | [19] 0.687 µM
6.53 µM: [12]

CC(=O)/C=C1\Nc2ccc([N+](=O)[O-])cc2N\C1=C/C(C)=O
33.4 µM: [12]
inactive: [1] 58.1 µM | [2] 25.4 µM | [3] 38.3 µM | [4] 42.5 µM | [5] 31.9 µM | [6] 58.2 µM | [7] 17.2 µM | [8] 58.2 µM | [9] 80.5 µM | [10] 42.4 µM | [11] 28.8 µM | [13] 56.6 µM | [55] 44.9 µM | [56] 28.4 µM | [14] 54 µM | [15] 26.7 µM | [16] 39.5 µM | [17] 50.8 µM | [18] 34.3 µM | [57] 73.5 µM | [19] > 100 µM | [20] 92.5 µM | [21] 82.4 µM | [22] 37.3 µM | [23] 21 µM | [24] 25.7 µM | [25] 39.4 µM | [26] 25.1 µM | [27] 21.5 µM | [28] 16 µM | [29] 30 µM | [59] 31.1 µM | [30] 44.7 µM | [31] > 100 µM | [32] 33.5 µM | [33] 44.3 µM | [34] 20.6 µM | [35] 64.3 µM | [36] 47.8 µM | [37] 42.2 µM | [38] 46.6 µM | [39] 51.1 µM | [40] 29.2 µM | [41] 24.7 µM | [42] 90.8 µM | [43] 28.7 µM | [44] 42.2 µM | [45] > 100 µM | [46] 17.9 µM | [47] 64.6 µM | [48] 33.8 µM | [49] 65.5 µM | [50] 35.3 µM | [51] 21.9 µM | [52] 26.7 µM | [53] > 100 µM

CN(C)Cc1cc(/N=N/c2ccccc2)cc(CN(C)C)c1O
56.6 µM: [12]
inactive: [1] 36.2 µM | [2] 97.3 µM | [3] > 100 µM | [4] > 100 µM | [5] > 100 µM | [6] > 100 µM | [7] 32.3 µM | [8] 20.5 µM | [9] 92.5 µM | [10] > 100 µM | [54] 79.1 µM | [11] 53.6 µM | [13] 21.9 µM | [55] > 100 µM | [56] 63.1 µM | [14] 73.8 µM | [15] > 100 µM | [16] 85.7 µM | [17] 97.5 µM | [18] 98.6 µM | [57] 47.2 µM | [19] > 100 µM | [20] 71 µM | [21] > 100 µM | [22] > 100 µM | [23] 45.8 µM | [24] > 100 µM | [25] > 100 µM | [26] > 100 µM | [27] 47.1 µM | [28] > 100 µM | [29] 43 µM | [59] 27.4 µM | [30] 35.8 µM | [31] > 100 µM | [32] 57.1 µM | [33] > 100 µM | [34] 80.5 µM | [35] 44.7 µM | [36] 73.5 µM | [37] > 100 µM | [38] > 100 µM | [39] > 100 µM | [40] 64.4 µM | [41] > 100 µM | [42] > 100 µM | [43] > 100 µM | [44] > 100 µM | [45] > 100 µM | [46] > 100 µM | [47] > 100 µM | [48] > 100 µM | [49] > 100 µM | [50] 99.1 µM | [51] > 100 µM | [52] > 100 µM | [53] 55 µM
